Data from ChEMBL document CHEMBL1201862, “PubChem BioAssay data set” (2004).
Calls of active or inactive are those of the source.

Legend:
[1] = inhibitors of HIV Env-driven cell fusion, dose response, cherry-pick (AID 652057); format: functional, cell-based
[2] = Luminescence Cell-Based Dose Retest to Confirm Inhibitors of Cancer Stem Cells. [Related pubchem assays (depositor defined):AID2717, AID2721]; format: functional; conditions: Homo sapiens
[3] = off-target signal loss in HeLa-CEM21 co-culture – HeLa F-luc CTL cells, cherry-picked, counter-screen for HIV-1 Env fusion inhibitor project, dose response (AID 652040); format: functional, cell-based;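 further: potency for signal decrease marking cytotoxic or nonspecific inhibition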
[4] = molecular target: T1, Protein RecA (Mycobacterium tuberculosis, UniProt P9WHJ3); test: Fluorescence Cell-Free Homogeneous Dose Retest to Identify Inhibitors of RecA-Intein Splicing Activity. [Related pubchem assays (depositor defined):AID2097, AID2223, AID489010, AID492950]; format: functional
T1 sequence (P9WHJ3 whole entry): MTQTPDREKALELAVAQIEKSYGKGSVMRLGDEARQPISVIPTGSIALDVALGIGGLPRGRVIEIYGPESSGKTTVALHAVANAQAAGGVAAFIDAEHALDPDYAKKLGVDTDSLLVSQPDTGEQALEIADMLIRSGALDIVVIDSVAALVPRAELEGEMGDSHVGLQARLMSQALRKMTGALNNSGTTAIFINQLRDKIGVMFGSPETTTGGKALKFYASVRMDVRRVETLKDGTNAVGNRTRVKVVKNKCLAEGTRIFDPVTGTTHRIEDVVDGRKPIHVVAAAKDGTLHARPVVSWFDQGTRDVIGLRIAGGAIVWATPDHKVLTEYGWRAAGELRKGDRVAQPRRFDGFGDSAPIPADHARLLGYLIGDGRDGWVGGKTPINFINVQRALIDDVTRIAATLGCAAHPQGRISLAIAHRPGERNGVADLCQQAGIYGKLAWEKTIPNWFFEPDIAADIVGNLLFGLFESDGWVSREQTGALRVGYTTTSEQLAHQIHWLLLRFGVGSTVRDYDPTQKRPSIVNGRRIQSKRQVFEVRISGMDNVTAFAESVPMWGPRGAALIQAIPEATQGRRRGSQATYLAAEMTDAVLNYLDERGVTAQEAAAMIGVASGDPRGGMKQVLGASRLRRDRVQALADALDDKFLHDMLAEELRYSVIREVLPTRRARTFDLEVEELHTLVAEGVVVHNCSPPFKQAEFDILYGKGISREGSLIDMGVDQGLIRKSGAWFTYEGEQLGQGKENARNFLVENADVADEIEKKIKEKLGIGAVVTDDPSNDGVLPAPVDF

[5] = CEM21 lymphoblast cell cytotoxicity, dose response, cytotoxicity control for viral fusion inhibitor project, CellTiter-Glo luminescence, cherry-picked (AID 652042); format: functional, cell-based;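 further: potency for signal decrease meaning cytotoxicity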
[6] = inhibitors of clade B AD8 Env fusion, dose response, cell-based, cherry-pick (AID 652062); format: functional;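 further: luciferase signal from cell-cell fusion driven by HIV-1 clade B AD8 Env; potency is for inhibitors of fusion seen as a drop in luminescence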
[7] = molecular target: T2, Replicative DNA helicase DnaB (Mycobacterium tuberculosis, UniProt P9WMR3); test: DnaB intein splicing inhibitors, dose response, biochemical, cell-free fluorescence (AID 449749); format: functional
T2 sequence (P9WMR3 whole entry): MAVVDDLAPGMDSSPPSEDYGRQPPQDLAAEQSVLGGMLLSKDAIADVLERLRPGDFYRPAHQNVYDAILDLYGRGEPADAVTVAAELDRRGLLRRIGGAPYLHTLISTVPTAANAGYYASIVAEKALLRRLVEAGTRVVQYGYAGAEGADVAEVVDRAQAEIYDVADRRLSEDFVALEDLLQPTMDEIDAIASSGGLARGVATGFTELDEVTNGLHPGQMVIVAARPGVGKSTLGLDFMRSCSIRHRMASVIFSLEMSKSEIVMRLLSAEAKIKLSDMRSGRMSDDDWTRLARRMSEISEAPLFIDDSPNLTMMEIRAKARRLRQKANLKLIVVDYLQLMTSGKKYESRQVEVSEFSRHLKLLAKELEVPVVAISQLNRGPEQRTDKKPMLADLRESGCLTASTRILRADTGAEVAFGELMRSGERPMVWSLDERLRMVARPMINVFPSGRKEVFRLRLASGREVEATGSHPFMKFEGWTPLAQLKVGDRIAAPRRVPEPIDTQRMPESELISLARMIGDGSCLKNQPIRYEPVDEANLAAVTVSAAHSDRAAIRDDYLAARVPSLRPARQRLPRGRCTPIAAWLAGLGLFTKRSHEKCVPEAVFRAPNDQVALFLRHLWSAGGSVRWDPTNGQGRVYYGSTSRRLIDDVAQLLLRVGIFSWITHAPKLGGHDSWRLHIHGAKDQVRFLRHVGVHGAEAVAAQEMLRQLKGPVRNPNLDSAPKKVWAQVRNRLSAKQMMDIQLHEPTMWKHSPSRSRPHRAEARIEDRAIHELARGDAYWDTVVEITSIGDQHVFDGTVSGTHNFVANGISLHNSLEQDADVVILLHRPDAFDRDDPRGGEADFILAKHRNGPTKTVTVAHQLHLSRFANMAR

[8] = molecular target: T3, Corticotropin-releasing factor receptor 2/Corticotropin-releasing factor-binding protein (Homo sapiens, UniProt P24387+Q13324); test: activators of CRF receptor 2 with binding protein – uHTS hits, confirmation (AID 602473); format: functional; conditions: read-out: EC50_Mean
T3 sequence (Q13324 whole entry): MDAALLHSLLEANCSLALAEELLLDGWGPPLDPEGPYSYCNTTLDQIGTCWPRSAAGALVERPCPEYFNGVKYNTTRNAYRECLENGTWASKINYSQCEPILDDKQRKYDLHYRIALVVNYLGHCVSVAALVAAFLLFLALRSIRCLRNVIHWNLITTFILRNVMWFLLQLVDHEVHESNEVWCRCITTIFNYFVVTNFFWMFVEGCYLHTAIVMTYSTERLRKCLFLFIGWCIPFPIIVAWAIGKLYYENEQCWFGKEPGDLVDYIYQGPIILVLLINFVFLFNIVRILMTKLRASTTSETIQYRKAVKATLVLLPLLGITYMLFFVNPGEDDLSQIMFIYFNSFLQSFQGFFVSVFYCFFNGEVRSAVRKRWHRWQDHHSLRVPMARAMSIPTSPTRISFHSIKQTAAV
T3 sequence (P24387 whole entry): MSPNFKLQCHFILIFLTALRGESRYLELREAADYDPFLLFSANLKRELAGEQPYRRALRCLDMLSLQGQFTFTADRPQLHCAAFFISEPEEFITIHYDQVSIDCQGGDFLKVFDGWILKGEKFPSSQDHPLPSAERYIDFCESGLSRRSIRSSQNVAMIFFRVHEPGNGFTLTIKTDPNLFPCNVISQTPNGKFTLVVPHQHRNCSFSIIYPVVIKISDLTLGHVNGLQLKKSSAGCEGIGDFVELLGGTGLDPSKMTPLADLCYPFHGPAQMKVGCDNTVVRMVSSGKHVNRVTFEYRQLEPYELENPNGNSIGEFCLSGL

[9] = CRF-BP/CRF-R2 complex antagonists, dose response, cell-based, uHTS hits, 384-well (AID 651639); format: functional, Homo sapiens; conditions: read-out: IC50_Mean
[10] = molecular target: T3, Corticotropin-releasing factor receptor 2/Corticotropin-releasing factor-binding protein; test: Dose Response confirmation of uHTS hits for small molecule antagonists of the CRF-binding protein and CRF-R2 receptor complex.; format: functional; conditions: read-out: IC50_Mean
[11] = human group III sPLA2 inhibitors, dose response, biochemical, QFRET, IC50 (AID 743457);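 further: green fluorescence rise as the enzyme cleaves BODIPY PC-A2 in liposomes; potency for inhibition of the enzyme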
[12] = molecular target: T4, Nuclear receptor subfamily 0 group B member 1 (Homo sapiens, UniProt P51843); format: functional, cell-based;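 further: HEK293T cells transfected with SF-1 and DAX-1 plus StAR promoter luciferase reporter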
T4 sequence (P51843 whole entry): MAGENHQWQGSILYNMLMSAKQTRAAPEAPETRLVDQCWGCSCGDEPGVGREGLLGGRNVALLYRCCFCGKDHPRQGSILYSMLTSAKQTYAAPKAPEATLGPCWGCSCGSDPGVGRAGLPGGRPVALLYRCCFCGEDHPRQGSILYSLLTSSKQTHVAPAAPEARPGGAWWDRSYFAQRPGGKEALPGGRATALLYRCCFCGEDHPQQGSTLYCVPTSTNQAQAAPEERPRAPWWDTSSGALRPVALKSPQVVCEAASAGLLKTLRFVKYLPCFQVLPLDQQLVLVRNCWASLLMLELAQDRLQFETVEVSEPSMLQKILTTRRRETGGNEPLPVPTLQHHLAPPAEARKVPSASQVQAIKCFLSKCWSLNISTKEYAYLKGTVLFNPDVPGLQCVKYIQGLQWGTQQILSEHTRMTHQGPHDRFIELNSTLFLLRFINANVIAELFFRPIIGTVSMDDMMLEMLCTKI

[13] = cells; format: functional, cell-based
[14] = A2780 ovarian cancer cell cytotoxicity, dose response, cytotoxicity control, plate reader, dry powder samples (AID 743046); format: functional, cell-based
[15] = NIH/3T3 fibroblast cytotoxicity, dose response, cytotoxicity control for T. cruzi growth inhibitor project, cell-based, cherry-pick samples, set 2 (AID 651817); format: functional; conditions: NIH3T3
[16] = cytotoxicity in OVCAR8 ovarian cancer cells, dose response, PAX8 project, cell-based, plate reader, dry powder samples (AID 743197); format: functional; conditions: OVCAR-8
[17] = ZM109 Env clade C HIV-1 fusion inhibitors, dose response, HeLa effector, CEM target cells, luciferase, cherry-pick (AID 652058); format: functional, cell-based
[18] = NIH:OVCAR-3 ovarian cancer cell cytotoxicity, dose response, PAX8 inhibitor project, plate reader, dry powder samples (AID 743044); format: functional, cell-based
[19] = IGROV1 ovarian cancer cell cytotoxicity, dose response, PAX8 inhibitor project, plate reader, dry powder samples (AID 743043); format: functional, cell-based; conditions: IGROV-1
[20] = molecular target: Paired box protein Pax-8 (Homo sapiens, UniProt Q06710); test: inhibitors of PAX8-driven TPO luciferase reporter, dose response, RMG-I cells, cherry-pick (AID 687027); format: functional, cell-based;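 further: luciferase reporter driven by Pax8 target thyroperoxidase promoter measured by SteadyGlo luminescence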
Chain of Paired box protein Pax-8 (Q06710 whole entry): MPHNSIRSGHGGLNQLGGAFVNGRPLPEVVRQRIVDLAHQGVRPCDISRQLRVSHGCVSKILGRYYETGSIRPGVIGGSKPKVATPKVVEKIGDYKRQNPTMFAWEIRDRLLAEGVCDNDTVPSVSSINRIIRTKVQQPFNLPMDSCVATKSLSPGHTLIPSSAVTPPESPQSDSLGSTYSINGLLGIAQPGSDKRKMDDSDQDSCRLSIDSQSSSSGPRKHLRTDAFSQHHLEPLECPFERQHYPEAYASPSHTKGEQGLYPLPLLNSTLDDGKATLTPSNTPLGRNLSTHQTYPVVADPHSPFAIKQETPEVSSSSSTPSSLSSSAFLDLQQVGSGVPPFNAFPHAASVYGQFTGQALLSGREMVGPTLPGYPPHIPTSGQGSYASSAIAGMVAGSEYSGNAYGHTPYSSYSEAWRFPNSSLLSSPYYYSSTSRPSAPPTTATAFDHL

[21] = T. cruzi intracellular amastigote growth inhibition, dose response, imaging, CA-I/72 strain, bovine embryo skeletal muscle, dry powder (AID 651885); format: functional, cell-based
[22] = T. cruzi growth inhibition in host cells, dose response, cell-based, plate reader, dry powder, set 2 (AID 652275); format: functional

**Q.** Which AC50 [1] does the source give for `COc1ccccc1/C=C/C1(C(=O)NC2CCCC2)CC(=O)N1c1ccc(F)cc1` (configuration not stated) here?
**A.** The AC50 was 3.35 µM (active).

**Q.** And the AC50 [2]?
**A.** Its AC50 is 6.36 µM (active).

**Q.** And the AC50 [3]?
**A.** The AC50 was 5.48 µM (active).

**Q.** What about the EC50 [4] of the same molecule?
**A.** The EC50 was 2.82 µM (active).

**Q.** And the AC50 [5]?
**A.** Its AC50 is 12.7 µM (active).

**Q.** What about the AC50 [6] of the same molecule?
**A.** Its AC50 is 25.2 µM (active).

**Q.** And the AC50 [7]?
**A.** The AC50 was 3.57 µM (active).

**Q.** For `CC1(C)CC(=O)C(C2C3=C(CC(C)(C)CC3=O)Oc3ccc4ccccc4c32)C(=O)C1` (configuration not stated), which EC50 [8] is on record?
**A.** Its EC50 is 31.8 µM (active).

**Q.** What about the IC50 [9] of the same molecule?
**A.** Its IC50 is > 20 µM (inactive).

**Q.** And the IC50 [10]?
**A.** The IC50 was 14.8 µM (active).

**Q.** For `Cc1ccc(C)c(NC(S)=NNC(=O)c2csc(C)c2C)c1`, which IC50 [11] is on record?
**A.** Its IC50 is > 122 µM (inactive).

**Q.** Which results are given for `COc1ccc(C(=O)Nc2nnc(SCC(=O)NC3CCCC3)s2)c(OC)c1`?
**A.** IC50 [12]: > 0.0926 µM (active); IC50 [13]: > 67.5 µM (inactive)

**Q.** With `C[C@@H]1CN([C@@H](C)CO)C(=O)Cc2cc(NS(=O)(=O)c3ccc(F)cc3)ccc2O[C@H]1CN(C)Cc1ccc(Cl)c(Cl)c1` as the molecule, how does the AC50 [14] read?
**A.** The AC50 was 45.6 µM (active).

**Q.** What about the AC50 [1] of the same molecule?
**A.** Its AC50 is 15.4 µM (active).

**Q.** And the AC50 [15]?
**A.** The AC50 was 7.33 µM (active).

**Q.** What about the AC50 [16] of the same molecule?
**A.** Its AC50 is 49.4 µM (active).

**Q.** And the AC50 [17]?
**A.** Its AC50 is 1.33 µM (active).

**Q.** What about the AC50 [18] of the same molecule?
**A.** Its AC50 is 27.8 µM (active).

**Q.** And the AC50 [19]?
**A.** The AC50 was 12.6 µM (active).

**Q.** And the AC50 [20]?
**A.** Its AC50 is 3.12 µM (active).

**Q.** And the AC50 [6]?
**A.** Its AC50 is 1.52 µM (active).

**Q.** Which IC50 [21] does the source give for `CC(C)N1C[C@H](C)[C@@H](CN(C)CC2CCOCC2)Oc2c(NC(=O)c3ccncc3)cccc2C1=O` here?
**A.** The IC50 was 5.83 µM (inconclusive).

**Q.** For `CC(C)N1C[C@@H](CN(C)Cc2ccc(Cl)cc2)Oc2c(NC(=O)c3ncn[nH]3)cccc2C1=O`, which AC50 [22] is on record?
**A.** The AC50 was 5.99 µM (active).

**Q.** What does the source list for `Cc1cccc(NC(=O)c2cccc([N+](=O)[O-])c2O)c1C`?
**A.** EC50 [8]: > 53 µM (inactive); IC50 [9]: > 20 µM (inactive); IC50 [10]: 5.93 µM (active)
